According to patent US11040053B2, “Compositions and methods for activating “stimulator of interferon gene”13 dependent signalling” (CHINOOK THERAPEUTICS, INC., priority 2015, dated 2021):

How the values were obtained:
B16.SIY cells = test: B16.SIY melanoma mouse model, intra-tumoral injection; format: in vivo, C57BL/6 mice
Protocol: To determine whether the derivative molecules elicit anti-tumor immunity, 6-8 week old female C57BL/6 mice (8 mice per group) were implanted with B16.SIY cells (5×10^5 cells in 100 μL PBS). Mice were treated with reference compound 3′3′-RR-(A)(A) and di-F compound 3′3′-RR-(2′F-A)(2′F-A) (5, 50, 100 μg in a total volume of 40 μL HBSS), or HBSS vehicle control. Treatments began when tumors reached a volume of approximately 100 mm^3, on day 9 post tumor implantation. The CDN compounds were administered by […] injection into the center of the tumor (IT) using a 27 gauge needle. Mice were bled on day 16 post tumor implantation and PBMCs were isolated by Ficoll gradient (Miltenyi Biotech). 1×10^5 PBMCs were pre-incubated with anti-CD16/32 monoclonal antibody to block potential nonspecific binding, and labeled with PE-MHC class I pentamer (Proimmune) consisting of murine H-2Kb complexed to […] (SIY, SEQ ID NO: 16) peptide, anti-TCRβ-AF700 (H57-597), anti-CD8-Pacific Blue (53-6.7), anti-CD4-Pacific Orange (RM4-5) (all antibodies from BioLegend) and the Fixable Viability Dye eFluor 450 (eBioscience). Stained cells were analyzed using FACS Versa cytometer with FACSDiva software (BD). Data analysis was conducted with FlowJo software (Tree Star).

[1] = target: T1, human-STING(E149-S379)H232R protein (Homo sapiens, UniProt Q86WV6, H232R); test: Surface Plasmon Resonance binding to hSTING WT; details: Biacore T200, 15° C., steady-state analysis
T1 construct: His6 (C); made in house; host or cells: E. coli
Protocol: Binding of the mono- and di-F CDN compounds was assessed using Surface Plasmon Resononce to determine a binding constant. An E. coli expression construct (human-STING[E149-S379]H232R) was prepared harboring the protein sequence:
Aliquots were prepared and stored at −80° C. in 30 mM Tris pH 7.5/100 mM NaCl/10% glycerol.
N-terminal avi-tagged human-STING(E149-S379)H232R protein was immobilized (2500 RUs) on a streptavidin chip at 15° C. in a Biacore T200 (GE Healthcare). Titrations of cyclic dinucleotides (CDNs as indicated in Table 6) in 30 mM Tris pH 7.5/50 mM NaCL/0.005% Tween 20/1 mM DTT/2% DMSO, were profiled (30 μLs/min, 180 seconds for sample contact/120 seconds for dissociation) against hSTING at 15° C. Kinetic analysis of the data was performed using Biacore T200 Evaluation software. Steady-state analysis of the data was performed using Graphpad Prism 6.0 software, using one site-specific binding algorithm (Equation is Y=Bmax*X/(Kd+X)).

T1 sequence (Q86WV6 with tags, fused parts or gaps H232R): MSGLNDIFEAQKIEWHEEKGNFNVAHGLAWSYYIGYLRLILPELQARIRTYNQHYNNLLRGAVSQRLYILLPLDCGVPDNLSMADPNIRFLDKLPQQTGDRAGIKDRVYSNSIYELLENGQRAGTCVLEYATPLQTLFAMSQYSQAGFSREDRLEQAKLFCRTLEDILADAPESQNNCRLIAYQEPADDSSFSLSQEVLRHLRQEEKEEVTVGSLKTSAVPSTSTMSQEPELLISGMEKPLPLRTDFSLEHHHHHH

Nc1ncnc2c1ncn2[C@@H]1O[C@@H]2CO[P@@](=O)(S)O[C@H]3[C@@H](F)[C@H](n4cnc5c(N)ncnc54)O[C@@H]3CO[P@@](=O)(S)O[C@H]2[C@H]1F [Compound 6, (2R,3R,3aR,5R,7aR,9R,10R,10aR,12R,14aR)-2,9-bis(6-amino-9H-purin-9-yl)-3,10-difluoro-5,12-dimercaptooctahydro-2H,7H-difuro[3,2-d:3′,2′-j][1,3,7,9]tetraoxa[2,8]diphosphacyclododecine 5,12-dioxide]
tumor volume / tumor growth, in words (B16.SIY cells; FIG. 14A, IT injection 5, 50, 100 μg, established B16-SIY melanomas): rejected the growth of established B16-SIY melanomas at all doses | percent of SIY-specific CD8+ T cells in PBMCs, in words (B16.SIY cells; FIG. 14B, 5 μg IT, day 7 post-IT injection, vs HBSS control): elicited significantly SIY-specific CD8^+ T cells | Kd [1]: 1 nM
